The source made the active and inactive calls. No cut-off for these calls is given here.
Tests used:
Klebsiella pneumoniae [1] = assay: Potentiation of erythromycin induced antibacterial activity against Klebsiella pneumoniae ATCC 700603 assessed as decrease in bacterial growth at 0.4 uM incubated for 18 hrs in presence of erythromycin by two fold serial dilution assay; type: functional, organism-based
[2] = Hydrophobicity of the compound assessed as retention time by reversed-phase HPLC analysis; type: physicochemical
Klebsiella pneumoniae [3] = assay: Antibacterial activity against Klebsiella pneumoniae ATCC 700603 assessed as inhibition of bacterial growth incubated for 18 hrs by two fold serial dilution assay; type: functional
Klebsiella pneumoniae [4] = assay: Potentiation of fusidic acid induced antibacterial activity against Klebsiella pneumoniae ATCC 700603 assessed as decrease in bacterial growth at 0.4 uM incubated for 18 hrs in presence of fusidic acid by two fold serial dilution assay; type: functional, organism-based
Escherichia coli [5] = assay: Potentiation of erythromycin induced antibacterial activity against Escherichia coli ATCC 25922 assessed as decrease in bacterial growth at 0.4 uM incubated for 18 hrs in presence of erythromycin by two fold serial dilution assay; type: functional, organism-based
Klebsiella pneumoniae [6] = assay: Potentiation of novobiocin induced antibacterial activity against Klebsiella pneumoniae ATCC 700603 assessed as decrease in bacterial growth at 0.4 uM incubated for 18 hrs in presence of novobiocin by two fold serial dilution assay; type: functional, organism-based
Escherichia coli [7] = assay: Antibacterial activity against Escherichia coli ATCC 25922 assessed as inhibition of bacterial growth incubated for 18 hrs by two fold serial dilution assay; type: functional
Acinetobacter baumannii [8] = assay: Potentiation of fusidic acid induced antibacterial activity against Acinetobacter baumannii ATCC 17978 assessed as decrease in bacterial growth at 0.4 uM incubated for 18 hrs in presence of fusidic acid by two fold serial dilution assay; type: functional, organism-based
Acinetobacter baumannii [9] = assay: Antibacterial activity against Acinetobacter baumannii ATCC 17978 assessed as inhibition of bacterial growth incubated for 18 hrs by two fold serial dilution assay; type: functional
Escherichia coli [10] = assay: Potentiation of fusidic acid induced antibacterial activity against Escherichia coli ATCC 25922 assessed as decrease in bacterial growth at 0.4 uM incubated for 18 hrs in presence of fusidic acid by two fold serial dilution assay; type: functional, organism-based
Acinetobacter baumannii [11] = assay: Potentiation of erythromycin induced antibacterial activity against Acinetobacter baumannii ATCC 17978 assessed as decrease in bacterial growth at 0.4 uM incubated for 18 hrs in presence of erythromycin by two fold serial dilution assay; type: functional, organism-based
Acinetobacter baumannii [12] = assay: Potentiation of novobiocin induced antibacterial activity against Acinetobacter baumannii ATCC 17978 assessed as decrease in bacterial growth at 0.4 uM incubated for 18 hrs in presence of novobiocin by two fold serial dilution assay; type: functional, organism-based
Escherichia coli [13] = assay: Potentiation of novobiocin induced antibacterial activity against Escherichia coli ATCC 25922 assessed as decrease in bacterial growth at 0.4 uM incubated for 18 hrs in presence of novobiocin by two fold serial dilution assay; type: functional, organism-based
[14] = Hemolytic activity in human blood assessed as hemolysis incubated for 6 hrs by microplate reader analysis; type: toxicity, tissue-based

Substance	Activity (Klebsiella pneumoniae [1])	Retention_time [2] [min]	MIC (Klebsiella pneumoniae [3]) [µM]	Activity (Klebsiella pneumoniae [4])	Activity (Escherichia coli [5])	Activity (Klebsiella pneumoniae [6])	MIC (Escherichia coli [7]) [µM]	Activity (Acinetobacter baumannii [8])	MIC (Acinetobacter baumannii [9]) [µM]	Activity (Escherichia coli [10])	Activity (Acinetobacter baumannii [11])	Activity (Acinetobacter baumannii [12])	Activity (Escherichia coli [13])	MHC10 [14] [µM]
Ac-KKLLKLLKKPLALLK-NH2	Active	19.6	> 80	Active	Active	Active	> 80	Active	20	Active	Active	Active	Active	> 160
Ac-KKLLKLLKKPLKALK-NH2	Active	17.5	> 80	Active	Active	Active	> 80	Active	40	Active	Active	Active	Active	> 160

From ChEMBL document CHEMBL5385907, “Proline-Hinged α-Helical Peptides Sensitize Gram-Positive Antibiotics, Expanding Their Physicochemical Properties to Be Used as Gram-Negative Antibiotics” (J Med Chem, 2024)
